One molecule from article PMC6884575, “Suppression of FOXM1 activities and breast cancer growth in vitro and in vivo by a new class of compounds” (NPJ Breast Cancer, 2019) can be followed below.

Data set [1] is described as follows: Pharmacokinetics in mice after single s.c. or oral dose. It is filed as in vivo, female CD1 mice. The settings on record: for AUC / Cmax / half-life: female, CD1, mouse, 40 mg/kg, single dose, plasma.
In data set [2] the test system is MDA-MB-231 and MDA-MB-453 breast cancer cells. In words: Cell proliferation in triple negative MDA-MB-231 and MDA-MB-453 cells. Format: cell-based. The note with it: Homo sapiens, read-out: IC50 antiproliferative. The procedure: (§1) WST-1 assay (Roche, Basel, Switzerland) was used to quantify cell viability as described.[38] Absorbance was measured at 450 nm using a VICTOR X5 PerkinElmer 2030 Multilabel Plate Reader. All assays were performed in triplicate and analyzed using Graph Pad Prism 8.0.

Data set [3] relates to FOXM1 target gene expression in MCF7 cells. In words: FOXM1 target gene expression by qRT-PCR. Format: cell-based, human. The note with it: MCF7, 24 h, compound at its IC50 for proliferation. In general terms: Quantitative PCR measures a nucleic acid by following its amplification.
Data set [4] concerns DT22 breast tumor xenografts. In words: DT22 human breast tumor xenograft growth in NSG mice. It is filed as in vivo. The procedure:
For examination of the effects of compounds on breast tumor growth suppression, intact female NOD/SCID-gamma (NSG) mice were used as detailed previously.[39] DT-22 breast cancer cells (1 × 10^6 cells/mouse) were injected s.c. into the right axial mammary gland. Mice received s.c. injection or oral gavage daily or every second or third day as indicated, with vehicle or treatment compound, and tumor volume (length × width^2/2) was monitored over time.
On the technique in general: In xenograft studies the graft and the host belong to different species.

The target in data set [5] is T1, FOXM1 (Homo sapiens, UniProt Q08050).
T1 sequence (Q08050 1-763): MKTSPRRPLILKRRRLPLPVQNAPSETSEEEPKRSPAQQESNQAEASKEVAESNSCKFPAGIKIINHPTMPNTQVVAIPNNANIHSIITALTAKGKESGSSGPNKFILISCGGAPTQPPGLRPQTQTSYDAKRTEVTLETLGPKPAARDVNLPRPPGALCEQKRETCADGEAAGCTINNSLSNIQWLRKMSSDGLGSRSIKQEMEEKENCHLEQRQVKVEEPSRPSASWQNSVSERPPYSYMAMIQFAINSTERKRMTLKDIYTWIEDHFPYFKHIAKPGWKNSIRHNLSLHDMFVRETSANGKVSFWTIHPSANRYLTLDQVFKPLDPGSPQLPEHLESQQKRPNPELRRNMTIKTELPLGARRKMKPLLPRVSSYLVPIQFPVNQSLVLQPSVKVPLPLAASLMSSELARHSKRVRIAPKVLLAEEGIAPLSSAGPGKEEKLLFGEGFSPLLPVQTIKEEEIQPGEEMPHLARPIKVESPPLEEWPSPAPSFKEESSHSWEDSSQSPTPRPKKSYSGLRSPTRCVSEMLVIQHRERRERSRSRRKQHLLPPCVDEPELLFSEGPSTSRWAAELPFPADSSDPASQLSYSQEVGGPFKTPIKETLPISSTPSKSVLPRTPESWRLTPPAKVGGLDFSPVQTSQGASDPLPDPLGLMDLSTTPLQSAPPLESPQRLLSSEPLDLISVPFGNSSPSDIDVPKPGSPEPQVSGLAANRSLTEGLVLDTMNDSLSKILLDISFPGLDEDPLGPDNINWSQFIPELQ
In words: Intracellular localization of FOXM1 (immunofluorescence, nuclear/cytoplasmic fractionation). Format: cell-based. On the set-up: endogenous in cells; host or cells: MDA-MB-231, MCF7. The note with it: 24 h, Western blot of nuclear and cytoplasmic extracts. The procedure:
In some cases, treatments with compound were done in the presence of the proteasome inhibitor MG132 (Calbiochem) as described in the figure legend. […] Band intensities were analyzed with Licor Odyssey 2.1 software. All blots shown together derive from the same experiment and were processed in parallel. Full uncropped images of blots are shown as supplementary figures in the Supplementary Information file. Molecular weight markers were Rainbow markers from GE Healthcare (38–225 kDa) or Precision Plus Dual Color Markers from Biorad (37–250 kDa).
On the technique in general: A western blot detects proteins with antibodies after separation by electrophoresis.

Data set [6] relates to MCF10A breast cell line. Kind of data set: Cell proliferation in non-tumorigenic MCF10A cells. The note with it: low level of FOXM1. It is filed as cell-based, human. The procedure:
as §1

Data set [7] deals with T1, FOXM1. Kind of data set: tr-FRET competitive binding assay with Fl-NB-72 probe. On the set-up: we attached a terbium donor to purified, full length FOXM1 through a streptavidin-biotin linker. The note with it: displacement of Fl-NB-72 (100 nM), tr-FRET. The protocol:
Competitive binding assays of compound binding to FOXM1 by tr-FRET were done in FRET buffer (20 mM Tris, pH 7.5, 50 mM NaCl, 0.01% NP-40 detergent, 10% glycerol) with 0.3 mg/ml ovalbumin and 0.1 mM butylated hydroxy-anisole added fresh daily. Solutions of the protein, fluorescent probe and compound dilutions were prepared at 3× concentrations, the final dilution taking place as they were mixed together in equal portions on the microtiter plate.
Final concentrations were 10^−5 M to 10^−9 M, with the last point being buffer only, no compound. Fluorescein-NB-72 (Fl-NB- 72) was prepared at 1 mM in DMF and stored at −20 °C. It was diluted into FRET buffer to give 100 nM in the assay. Incubations were done in duplicate on black Molecular Devices 96-well microtiter plates. 5 μl of Fl-NB-72 and 5 μl of the compound dilutions, were mixed together on the plate. To this was added 5 µl biotin-FoxM1 and incubated in the dark at room temperature, for 1 h. […] To correct for background signals, biotin-FOXM1 was omitted, and diffusion-enhanced FRET incubations were done in duplicate on black Molecular Devices 96-well microtiter plates. Five microliter of Fl-NB-72 and 5 μl of the compound solutions were mixed together and then 5 µl of FRET buffer plus SaTb was added, mixed and incubated in the dark at room temperature, for 1 h. The tr-FRET signals measured as above were subtracted as a background from the first incubations that contained biotin-FOXM1. Graphs were prepared using Graph Pad/Prism 4.

Data set [8] has as its system human breast cancer cell lines (DT22, MCF7, T47D, BT474, MDA-MB-453, MDA-MB-468, MDA-MB-231). Kind of data set: Cell proliferation (WST-1) in panel of breast cancer cell lines. Format: cell-based. The procedure: as §1

SMILES strings stand for the structures.

In the case of `Clc1ccc(C(=C2C3CC4CC(C3)CC2C4)c2ccc(OCCCCCCN3CCCC3)cc2)cc1` [NB-55], the “PK properties (half-lives and blood levels achieved)” value in data set [1] (after oral administration) and in data set [1] (after s.c. administration) was “good PK properties” in each case. Besides, the AUC – broadly, the area under the concentration-time curve, a measure of exposure – in data set [1] (oral) stood at 35.7 µM·h; in data set [1] (sc), 34.7 µM·h. The highest concentration (Cmax) (in general, the maximum level reached in the sampled fluid or tissue) turned out to be 2.38 µM in data set [1] (oral) and 1.2 µM in data set [1] (sc). Besides, the figures for the half-life in data set [1] (oral) and in data set [1] (sc) were 28.8 h and 135 h, respectively. Besides, the IC50 is 3 to 5 µM in data set [2]; 1.24 µM in data set [7]; 2 to 10 µM in data set [8] (Homo sapiens, breast cancer cell lines, read-out: IC50 for inhibition of proliferation). Further, the “expression of ATF3, a gene suppressed by FOXM1” value in data set [3] is recorded as “increased expression of ATF3”. Further, in data set [3], the “expression of FOXM1 stimulated target genes (FOXM1C, AURKB, CCNB1, PLK1)” value is on record as “significantly reduced the expression”. For the same molecule, the tumor suppression entry in data set [4] (20 or 40 mg/kg doses (data not shown)) was “only marginally effective”. In addition, in data set [4] (DT22 tumors, NSG mice, 100 mg/kg oral gavage daily), the “growth of human breast tumor xenografts” value is listed as “very effectively suppressed the growth”. For the same molecule, the “intracellular localization of FOXM1” value in data set [5] is “does not change the intracellular localization of FOXM1”. Besides, in data set [6], the “concentration for 50% suppression of proliferation relative to breast cancer cell lines” value is recorded as “five times higher”. Also, the “reduced potency in suppression of cell proliferation” value in data set [8] (dose-response studies in cells in culture) is given as 5 fold.
